Measurements published in US12006314B2, “Anti-cancer nuclear hormone receptor-targeting compounds” (Nuvation Bio Inc., priority 2021, dated 2024).
Changes are numbered by the printed parent chain.

Tests used:
[1] = target: T1, full-length androgen receptor (HEK293 cells stably expressing) (Homo sapiens, UniProt P10275); test: AR antagonism assay; assay type: cell-based; conditions: testosterone 1 nM, 20 h, Steady-glo
T1 construct: HEK293 cells stably expressing the full-length androgen receptor were seeded; expressed in transfected cells
T1 sequence (P10275 1-920): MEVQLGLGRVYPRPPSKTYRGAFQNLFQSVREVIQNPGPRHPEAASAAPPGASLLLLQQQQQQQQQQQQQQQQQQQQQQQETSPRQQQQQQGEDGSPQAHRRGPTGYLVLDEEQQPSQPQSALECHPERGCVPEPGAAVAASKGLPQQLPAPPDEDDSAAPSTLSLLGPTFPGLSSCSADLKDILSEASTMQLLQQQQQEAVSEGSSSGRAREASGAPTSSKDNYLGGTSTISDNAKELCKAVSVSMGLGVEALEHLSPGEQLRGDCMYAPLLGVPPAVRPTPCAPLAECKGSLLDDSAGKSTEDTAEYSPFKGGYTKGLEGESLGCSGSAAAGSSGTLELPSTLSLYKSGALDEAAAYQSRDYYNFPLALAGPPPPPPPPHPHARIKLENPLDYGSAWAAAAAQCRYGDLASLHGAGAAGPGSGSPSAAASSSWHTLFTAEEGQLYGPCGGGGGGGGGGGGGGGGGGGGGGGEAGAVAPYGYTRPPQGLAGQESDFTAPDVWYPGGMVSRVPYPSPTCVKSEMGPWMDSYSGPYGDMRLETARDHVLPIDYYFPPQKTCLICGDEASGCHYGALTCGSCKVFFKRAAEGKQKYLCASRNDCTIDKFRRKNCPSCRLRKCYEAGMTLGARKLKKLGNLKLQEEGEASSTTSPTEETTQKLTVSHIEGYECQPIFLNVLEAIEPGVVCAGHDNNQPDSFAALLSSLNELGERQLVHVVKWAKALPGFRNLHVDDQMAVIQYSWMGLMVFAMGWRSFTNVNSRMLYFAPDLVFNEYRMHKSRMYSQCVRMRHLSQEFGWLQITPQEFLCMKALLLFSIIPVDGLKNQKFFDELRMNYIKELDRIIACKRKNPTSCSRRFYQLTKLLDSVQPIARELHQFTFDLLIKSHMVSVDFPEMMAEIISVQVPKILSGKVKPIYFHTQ
Procedure: AR antagonism assay: To evaluate AR antagonist activity, test compound was added to the assay plate (top dose 10 μM, 3 fold serial dilution, 10 point dose response). HEK293 cells stably expressing the full-length androgen receptor were seeded at a density of 20000 cells/well in the assay plate. The assay plate was then incubated at room temperature for 10 minutes and at 37° C., 5% CO2 for 20 minutes. Testosterone is added to the assay plate at 1 nM final concentration and the assay plate incubated at 37° C., 5% CO2 for 20 h. After the incubation period, Steady-glo was added to the assay plate and mixed at room temperature for 20 minutes on an orbital shaker, before reading out on the EnVision plate reader.

LNCap cells = test: Cell viability assay LNCap; assay type: cell-based; conditions: Homo sapiens, 144 h, 6 days, CellTiterGlo
Procedure: (§1) Cell viability assay: LNCap, 22Rv1, MCF7, MDAMB361, T47D, and IEC6 cells were seeded at a density of 500-2000 cells/well in 96 well plates, and a ‘T0’ (timepoint 0) was included along with the assay plate. The plates were then incubated at 37° C., 5% CO2 in a cell culture incubator overnight. On the next day, the ‘T0’ plate was assayed using CellTiterGlo (Promega, Inc) according to the manufacturer's instructions. The appropriate compounds were diluted in DMSO and added to the assay plate (final DMSO concentration of 0.1-0.2%) on the next day. The assay plates were incubated for 6 days at 37° C., 5% CO2. After the incubation period, the plates were assayed using CellTiterGlo (Promega, Inc) according to the manufacturer's instructions and luminescence was read on the EnVision plate reader. Inhibition of the tested compounds was determined by the following formula: Inhibition rate (%)=(1−(RLU compound−RLU day0)/(RLU control−RLU day0))*100%. GraphPadPrism was used to analyze the data and determine GI50/IC50 values.

IEC6 cells = test: Cell viability assay IEC6; assay type: cell-based; conditions: Rattus norvegicus, IEC-6, 144 h; 6 days, CellTiterGlo
Procedure: as §1

22Rv1 cells = test: Cell viability assay 22Rv1; assay type: cell-based; conditions: Homo sapiens, 22Rv1, 144 h; 6 days, CellTiterGlo
Procedure: as §1

[2] = target: T2, AR (cytosol from LnCaP cells) (Homo sapiens, UniProt P10275, T878A); test: AR binding assay; conditions: 3H-R1881 1 nM, 4° C. 24 hrs
T2 construct: endogenous in cells; host or cells: LNCaP cytosol
T2 sequence (P10275 1-920 T878A): T1 sequence (P10275 1-920) with T878A
Procedure: AR binding assay: To assess AR binding, test compound (top dose 10 μM, 4 fold serial dilution, 8 point dose response) and control (progesterone) were transferred to the assay plate. Cytosol from LnCaP cells was added to the plate, followed by addition of radiolabeled ^3H-R1881 at a final concentration of 1 nM. The plate was sealed, and the reaction was incubated at 300 rpm at 4° C. for 24 hrs. Radioligand absorption buffer (10 mM Tris-HCl, pH 7.4; 1.5 mM EDTA; 1 mM DTT; 0.25% charcoal; 0.0025% dextran) was then added to the plate, mixed, and incubated at 4° C. for 15 minutes. The plate was then centrifuged at 3000 rpm for 30 minutes at 4° C. The supernatant was transferred to the scint-tube and Tri-carb was used for scintillation counting.

IC50 [1] | GI50 (LNCap cells) | GI50 (22Rv1 cells) | IC50 [2] | SMILES | IC50 (IEC6 cells)
> 10 µM | ≤ 0.5 µM | 0.5 to 5 µM | 0.1 to 1 µM | CCc1cc2ncc(CN3CCN(c4ccc(C(=O)NCC5CCN(c6ccc(C(=O)N[C@H]7CC[C@H](Oc8ccc(C#N)c(Cl)c8)CC7)nn6)CC5)nc4)CC3)cc2[nH]c1=O [Compound 1, N-((1r,4r)-4-(3-Chloro-4-cyanophenoxy)cyclohexyl)-6-(4-((5-(4-((7-ethyl-6-oxo-5,6-dihydro-1,5-naphthyridin-3-yl)methyl)piperazin-1-yl)picolinamido)methyl)piperidin-1-yl)pyridazine-3-carboxamide] | > 30 µM
> 10 µM | ≤ 0.5 µM | ≤ 0.5 µM | < 0.1 µM | CCc1cc2ncc(CN3CCN(CC4CCN(c5ccc(C(=O)N[C@H]6CC[C@H](Oc7ccc(C#N)c(Cl)c7)CC6)nn5)CC4)CC3)cc2[nH]c1=O [Compound 4, N-((1r,4r)-4-(3-Chloro-4-cyanophenoxy)cyclohexyl)-6-(4-((4-((7-ethyl-6-oxo-5,6-dihydro-1,5-naphthyridin-3-yl)methyl)piperazin-1-yl)methyl)piperidin-1-yl)pyridazine-3-carboxamide] | > 30 µM
> 10 µM | 0.5 to 5 µM | 0.5 to 5 µM | < 0.1 µM | CCc1cc2ncc(CN3CCN(CC4CCN(c5ccc(C(=O)N[C@H]6C(C)(C)[C@H](Oc7ccc(C#N)c(Cl)c7)C6(C)C)nn5)CC4)CC3)cc2[nH]c1=O [Compound 13, N-((1r,3r)-3-(3-Chloro-4-cyanophenoxy)-2,2,4,4-tetramethylcyclobutyl)-6-(4-((4-((7-ethyl-6-oxo-5,6-dihydro-1,5-naphthyridin-3-yl)methyl)piperazin-1-yl)methyl)piperidin-1-yl)pyridazine-3-carboxamide] | 0.5 to 5 µM
> 10 µM | 0.5 to 5 µM | 0.5 to 5 µM | < 0.1 µM | CCc1cc2ncc(CN3CCN(c4ccc(C(=O)N5CCN(CC6CCN(c7ccc(C(=O)N[C@H]8CC[C@H](Oc9ccc(C#N)c(Cl)c9)CC8)nn7)CC6)CC5)nc4)CC3)cc2[nH]c1=O [Compound 59, N-((1r,4r)-4-(3-Chloro-4-cyanophenoxy)cyclohexyl)-6-(4-((4-(5-(4-((7-ethyl-6-oxo-5,6-dihydro-1,5-naphthyridin-3-yl)methyl)piperazin-1-yl)picolinoyl)piperazin-1-yl)methyl)piperidin-1-yl)pyridazine-3-carboxamide] | > 30 µM
> 10 µM | 0.5 to 5 µM | 0.5 to 5 µM | < 0.1 µM | CCc1cc2ncc(CN3CCN(c4ccc(C(=O)N5CCN(C(=O)C6CCN(c7ccc(C(=O)N[C@H]8CC[C@H](Oc9ccc(C#N)c(Cl)c9)CC8)nn7)CC6)CC5)nc4)CC3)cc2[nH]c1=O [Compound 60, N-((1r,4r)-4-(3-Chloro-4-cyanophenoxy)cyclohexyl)-6-(4-(4-(5-(4-((7-ethyl-6-oxo-5,6-dihydro-1,5-naphthyridin-3-yl)methyl)piperazin-1-yl)picolinoyl)piperazine-1-carbonyl)piperidin-1-yl)pyridazine-3-carboxamide] | > 30 µM

Second part, the compound before the results:

SMILES | IC50 [1] | GI50 (LNCap cells) | GI50 (22Rv1 cells) | IC50 [2] | IC50 (IEC6 cells)
CCc1cc2ncc(CN3CCN(c4ccc(-c5nnc([C@H](Nc6ccc(C#N)c(Cl)c6)[C@H](C)O)o5)cc4)CC3)cc2[nH]c1=O [Compound 63, 2-Chloro-4-(((1R,2S)-1-(5-(4-(4-((7-ethyl-6-oxo-5,6-dihydro-1,5-naphthyridin-3-yl)methyl)piperazin-1-yl)phenyl)-1,3,4-oxadiazol-2-yl)-2-hydroxypropyl)amino)benzonitrile] | > 10 µM | 0.5 to 5 µM | 5 to 30 µM | 0.1 to 1 µM | > 30 µM
CCc1cc2ncc(CN3CCN(c4ccc(-c5nnc([C@H](Nc6ccc(C#N)c(Cl)c6C)[C@H](C)O)o5)cc4)CC3)cc2[nH]c1=O [Compound 64, 2-Chloro-4-(((1R,2S)-1-(5-(4-(4-((7-ethyl-6-oxo-5,6-dihydro-1,5-naphthyridin-3-yl)methyl)piperazin-1-yl)phenyl)-1,3,4-oxadiazol-2-yl)-2-hydroxypropyl)amino)-3-methyl Benzonitrile] | > 10 µM | 0.5 to 5 µM | 5 to 30 µM | 1 to 10 µM | 0.5 to 5 µM
CCc1cc2ncc(CN3CCN(c4ccc(-c5nnc([C@H]6[C@H](C)OC(=O)N6c6ccc(C#N)c(Cl)c6)o5)cc4)CC3)cc2[nH]c1=O [Compound 65, 2-Chloro-4-((4R,5S)-4-(5-(4-(4-((7-ethyl-6-oxo-5,6-dihydro-1,5-naphthyridin-3-yl)methyl)-piperazin-1-yl)phenyl)-1,3,4-oxadiazol-2-yl)-5-methyl-2-oxooxazolidin-3-yl)benzonitrile] | > 10 µM | 5 to 30 µM | > 30 µM | > 10 µM | > 30 µM
CCc1cc2ncc(CN3CCN(C[C@H]4CC[C@H](COc5cc(F)c([C@@H]6c7[nH]c8ccccc8c7C[C@@H](C)N6CC(C)(C)F)c(F)c5)CC4)CC3)cc2[nH]c1=O [Compound 75, 7-((4-(((1R,4r)-4-((3,5-Difluoro-4-((1R,3R)-2-(2-fluoro-2-methylpropyl)-3-methyl-2,3,4,9-tetrahydro-1H-pyrido[3,4-b]indol-1-yl)phenoxy)methyl)cyclohexyl)methyl)piperazin-1-yl)methyl)-3-ethyl-1,5-naphthyridin-2(1H)-one] | – | – | – | – | 5 to 30 µM
